“And” between values parts separate entries of the source, which are not always exact repeats. Equal entries are not always repeated. “Also recorded” adds a separate entry of the source. Where two headings read alike, the source gives them in different places.
How the values were obtained:
L929 (mouse fibroblast) = assay: Cytotoxicity assay (MTT), L929; format: cell-based; conditions: Mus musculus, L929, 120 h, read-out: IC50 L929
Protocol: (§1) The cytotoxicity assay was implemented in 96-well flat-bottom microtiter plates following a reported procedure.[21],[22],[33] The mammalian cell lines L929 (mouse fibroblast) and KB3.1 (human cervix carcinoma) were cultivated at 37 °C and 10% CO2 in Dulbecco’s modified minimum essential medium (DMEM, Life Technologies, Carlsbad, CA, USA) supplemented with 10% fetal bovine serum (FBS, Life Technologies). The microtiter plate was filled with 120 μL of suspended cells (50,000/mL), and 60 μL of a serial dilution of the test compound was added. After 5 days of incubation, growth inhibition (IC50) was determined by a colorimetric tetrazolium dye MTT assay.[34] The compounds were dissolved in MeOH (1 mg/mL), MeOH was used as negative control, and epothilone[35] (1 mg/mL) was used as positive control.

[1] = tested on: filamentous actin (F-actin) in U-2OS wild type (wt) cells; assay: Actin disruption assay in U-2OS cells (phalloidin staining); format: cell-based, human; conditions: for effect on F-actin network, high dose 1 h: 5 x IC50 (L929), compared to control; for effect on actin and nuclei number, high dose 24 h: 5 x IC50, 24 h, differences between 1 and 24 h treatment
Protocol: For this, the human osteosarcoma cell line U-2OS was treated using concentrations estimated based on previously determined IC50 values in murine L929 fibroblasts (Table 1), referred to as low dose (1 × IC50), and a 5-fold concentration, referred to as high dose (5 × IC50). Reorganization of the F-actin network was also investigated upon high dose treatment, followed by washout and a 1 h recovery phase in fresh medium. The impact on F-actin network organization was visualized using fluorescently labeled phalloidin (Figure 2). […] In addition, the effects on F-actin structures observed upon high dose treatment of all compounds were fully reversible after a 1 h recovery time (Figure 2m–q).
The respective previously determined IC50 values in L929 were used to calculate the treatment concentration (1 × IC50: low dose; 5 × IC50: high dose).[37] DMSO was used as the vehicle control, corresponding to the highest compound volume used in the assay. Coverslips were coated with 25 μg/mL fibronectin (Roche, Mannheim, Germany) diluted 1:40 in phosphate buffered saline (PBS, pH 7.4, Life Technologies), and cells were seeded at a density of 20,000 cells and allowed to spread overnight. CO2-equilibrated culture medium was spiked with the desired compound and DMSO, respectively, in the above-mentioned concentration, and cells were treated with prepared medium for 1 h under cell culture conditions. For long-term experiments, the treatment phase was extended to 24 h. Cells were washed once and fixed afterward using 4% prewarmed paraformaldehyde (PFA) supplied in PBS for 20 min at 37 °C, followed by three additional washing steps with prewarmed PBS buffer. In addition, the reversibility of high dose effects on F-actin network organization was investigated by a washout procedure including three times prewarmed PBS wash steps prior to the addition of fresh medium and a recovery time of 1 h before fixation. In the case of 24 h treatments, the recovery phase was extended to 47 h. Cells were permeabilized with 0.1% Triton X-100 (Bio-Rad Laboratories, Hercules, CA, USA) in PBS buffer for 1 min at room temperature, washed three times with PBS, and stained for F-actin using ATTO-594-coupled phalloidin (ATTO-Tec, Siegen, Germany) diluted in PBS buffer (1:100) for 1 h at room temperature. Coverslips were washed thrice in PBS and mounted in ProLong Diamond antifade mountant (Invitrogen) containing DAPI to probe for nuclear DNA. Cells were recorded using an inverted microscope (Nikon Eclipse Ti2, Tokyo, Japan) equipped with a 60 times Nikon oil immersion objective (Plan Apofluar, 1.4 NA), a pE-4000 (CoolLED, Andover, UK) as light source, and a pco.edge back-illuminated sCMOS camera (Excelitas Technologies, Mississauga, ON, Canada). The microscopy system was operated by and images were recorded with NIS (Nikon) and processed with ImageJ (NIH, Bethesda, MD, USA).

[2] = target: T1, actin (G-actin purified from rabbit skeletal muscle) (Oryctolagus cuniculus, UniProt P68135); assay: Pyrene actin polymerization assay; format: biochemical; conditions: 2 μM compound, 2 μM actin (5% pyrene-actin), 550 nM actin seeds, after 30 min; control = 100%
T1 construct: 1.5 kg of fresh rabbit skeletal muscle was minced with a meat grinder; from tissue; host or cells: rabbit skeletal muscle (acetone powder)
From the text: To rule out that the reduced in cellulo efficacies of 3–5 could instead be explained by an altered membrane permeability of modified compounds or their differential effects on other intracellular factors, pyrene actin polymerization assays[23] were used to analyze potential effects on actin assembly in vitro under defined conditions. Globular actin (G-actin) was purified from rabbit skeletal muscle[24] and fluorescently labeled with pyrene (see description in the Supporting Information). G-actin (2 μM) supplemented with 5% pyrene-labeled actin was added to actin seeds and the respective compound (2 μM) in polymerization buffer to initiate the reaction. Actin polymerization was then assessed by reading out the increasing pyrene fluorescence signal over time (Figure 3).
Acetone powder and G-actin were prepared as described previously.[24] Briefly, 1.5 kg of fresh rabbit skeletal muscle was minced with a meat grinder. Subsequently, the meat was stirred for 15 min in 2.5 L of high-salt buffer (0.5 M KCl, 0.1 M K2HPO4, 2 mM benzamidine, pH 6.4) and then pelleted at 4000g for 10 min. The supernatant was discarded, and the pellet was extracted once more with high-salt buffer and then washed twice with ice-cold ddH2O adjusting the slurry with 1 M Na2CO3 to pH 8.3 until a slight swelling of the pellet became visible. The pellet was then resuspended in ice-cold acetone, stirred for 15 min, and then centrifuged for 10 min at 4000g. The supernatant was discarded, and the pellet was washed once more with acetone before the pellet was broken up and dried in small pieces on aluminum foil under a fume hood overnight. The dried acetone powder was stored at −80 °C for further use.
For purification of G-actin, 5 g of the acetone powder was extracted five times with 50 mL of G-buffer containing 2 mM Tris-HCl, pH 8.0, 0.2 mM CaCl2, 0.5 mM DTT, 0.2 mM Na2ATP, and 0.1 mg/mL NaN3. After each step, the solution was filtered through a fine gauze, yielding a total volume of 250 mL. Subsequently, the solution was centrifuged for 30 min at 20,000g at 4 °C. Actin in the supernatant was then polymerized by addition of 25 × polymerization buffer (250 mM Tris-HCl pH 8.0, 1250 mM KCl, 25 mM Na2ATP, 50 mM MgCl2 × 6 H2O) overnight. Subsequently, KCl was added to a final concentration of 750 mM, followed by centrifugation of the solution at 150,000g at 4 °C for 3 h. The F-actin pellet was then homogenized with 25 mL of G-actin buffer using a potter and then dialyzed against G-buffer. After a final centrifugation step at 150,000g at 4 °C for 3 h, G-actin was purified by size exclusion chromatography using a HiLoad 26/75 Superdex 200 column. Actin concentrations were determined by measuring the absorbance at 290 nm and using an extinction coefficient of 26,600 M^–1 cm^–1.
For pyrene labeling, 10–20 mL of G-actin solution were dialyzed against labeling buffer following the procedure described by Doolittle et al.[38] […]
Pyrene assays were conducted to assess the inhibitory properties of cytochalasins on actin polymerization under defined conditions in vitro using G-actin and actin seeds. The degree of labeling was determined; EC290 nm actin: 26600 1/M × cm; EC342 nm pyrene: 31091 1/M × cm. […]

[3] = tested on: glucose carrier in human erythrocytes; conditions: human erythrocytes ref 29, 30; cited from earlier work
[4] = tested on: human potassium channel hKv1.5; parameters: method as in PMID 15800051; conditions: cited from earlier work
[5] = tested on: KB3.1 (human cervix carcinoma); assay: Cytotoxicity assay (MTT), KB3.1; format: cell-based; conditions: Homo sapiens, KB 3-1, 120 h, read-out: IC50 KB3.1
Protocol: as §1

[6] = 5 days of incubation, MTT, NC: no cytotoxic effect, or only weak inhibition of proliferation

For `C=C1[C@@H](C)[C@H]2[C@H](Cc3ccccc3)NC(=O)[C@]23OC(=O)/C=C/[C@H](O)CCC[C@@H](C)C/C=C/[C@H]3[C@@H]1O` [Compound 2, cytochalasin B], the IC50 (L929 (mouse fibroblast); [6]) was 1300 nM, the “effect on F-actin network, low dose” value ([1]; 1 x IC50 (L929), 1 h) was “partially led to compromised lamellipodia and a reduction of intermittent, cytoplasmic F-actin” and the “effect on F-actin network, high dose 1 h” value ([1]; 1 h) was “complete collapse of the F-actin network; also recorded: actin disruption”. The “effect on actin and nuclei number, high dose 24 h” value [1] was “+ multinucleation; also recorded: formation of multinucleated cells”, the “relative actin polymerization rate” value [2] was 45% and the “inhibition of glucose transport” value [3] was “inhibits glucose transport”. The “inhibitory activity on hKv1.5” value [4] was “inhibitory activity”.

For `C=C1[C@@H](C)[C@H]2[C@H](Cc3ccccc3)N(C)C(=O)[C@]23OC(=O)/C=C/[C@H](O)CCC[C@@H](C)C/C=C/[C@H]3[C@@H]1O` [Compound 4, N-methyl cytochalasin B], the IC50 (L929 (mouse fibroblast); [6]) was greater than 10000 nM, the “effect on F-actin network, high dose 1 h” value ([1]; 1 h) was “only slight; also recorded: moderate effects” and the “effect on actin and nuclei number, high dose 24 h” value [1] was “caused multinucleation, but left the actin network largely unchanged”. The “relative actin polymerization rate” value [2] was 83% and 84–86% and 84%.

Work on `C/C(=C\c1csc(C)n1)[C@@H]1C[C@@H]2O[C@]2(C)CCC[C@H](C)[C@H](O)[C@@H](C)C(=O)C(C)(C)[C@@H](O)CC(=O)O1` [Epothilone B, reference compound] yielded an IC50 (L929 (mouse fibroblast)) of 0.58 nM and an IC50 [5] of 0.095 nM.
